These results are taken from article PMC9942557, “Bolaamphiphile Analogues of 12-bis-THA Cl2 Are Potent Antimicrobial Therapeutics with Distinct Mechanisms of Action against Bacterial, Mycobacterial, and Fungal Pathogens” (mSphere, 2022).

One data set relates to P. aeruginosa PAO1. In words: Fixed-concentration (0.25× MIC bolalipid) synergy broth microdilution. The format is cell-based, Pseudomonas aeruginosa. As to conditions: P. aeruginosa PAO1. (In general: In broth dilution the organism is exposed to a series of concentrations in liquid medium.)
The test system of a further data set is P. aeruginosa NCTC 13437. The description is as above. The format is cell-based, Pseudomonas aeruginosa. The conditions noted are these: P. aeruginosa NCTC 13437.
For data set [1], the system named is Pseudomonas aeruginosa RP73. The data set is described as follows: In vitro pharmacodynamic (PD) assay. The conditions noted are these: P. aeruginosa RP73; combination 2:1 (wt/wt).
Protocol: In vitro PD assays were performed with Pseudomonas aeruginosa RP73 cultured in Roswell Park Memorial Institute 1640 medium (RPMI) supplemented with 5% Mueller-Hinton broth (MHB) ([35]). Bacteria were cultured overnight in 10 mL of RPMI–5% MHB at 37°C and diluted just prior to plate inoculation to an OD600 of 0.002. Stock solutions of colistin or tobramycin were prepared in sterile MilliQ water at a concentration of 200× MIC. Octa-bola was prepared in methanol at 2,000× MIC and diluted in water to 200× MIC. A dilution series was made in the top row of a polypropylene 96-well plate from 200× MIC to 0.2× MIC in a volume of 100 μL, to which 100 μL of the bacterial suspension was added to have a total of 1 × 10^6 log-phase CFU in 200 μL. The first time zero sample was taken <30 s after addition of bacteria to the plate, with further samples taken at appropriate intervals thereafter. […] Fifteen microliters was removed from each well, diluted 1:1,000 in phosphate-buffered saline, and plated onto RPMI–5% MH agar plates. The plates were incubated at 37°C overnight for CFU counting.
CFU data were log10 transformed, and the bacterial net growth rate was determined from the increase or decrease in CFU during the time of exposure to the antibiotics as the coefficient of a linear regression of log10 CFU as a function of time. The intercept of the regression was fixed by forcing the regression lines through the first CFU measurement (0 min) at a given antimicrobial concentration. The pharmacodynamic function according to Regoes et al. ([36]) describes the relationship between bacterial net growth rate (ψ) and the concentration of an antimicrobial (a): ψmax − ([ψmax − ψmin][a/zMIC])^κ/([a/zMIC]^κ − [ψmin/ψmax]). Fitting this function to the net bacterial growth rates in OriginPro 2020 (OriginLab Corporation, Northampton, MA) generates the parameters ψmin and ψmax (minimum and maximum growth rates, respectively), zMIC (the pharmacodynamic MIC), and κ (a measure of the cooperativity). […]
Data set [2] concerns Klebsiella pneumoniae NCTC 13368. In words: Broth microdilution MIC. Format: cell-based.
Another data set deals with Klebsiella pneumoniae M6. In words: Broth microdilution MIC. Format: cell-based.
Data set [3] relates to Acinetobacter baumannii AYE. The data set is described as follows: Broth microdilution MIC. As to conditions: Acinetobacter baumannii AYE. The format is cell-based.
Data set [4] relates to Acinetobacter baumannii ATCC 17978. The data set is described as follows: Broth microdilution MIC. The format is cell-based.
Data set [5] relates to Pseudomonas aeruginosa PAO1. In words: Broth microdilution MIC. The format is cell-based.
In data set [6] the test system is Pseudomonas aeruginosa NCTC 13437. In words: Broth microdilution MIC. The format is cell-based.
Data set [7] relates to Escherichia coli NCTC 12923. The data set is described as follows: Broth microdilution MIC. Format: cell-based.
Data set [8] deals with EMR Staphylococcus aureus 15 NCTC 13616. In words: Broth microdilution MIC. Format: cell-based. The conditions noted are these: EMR Staphylococcus aureus 15 NCTC 13616.
Data set [9] deals with EMR Staphylococcus aureus 16 NCTC 13277. In words: Broth microdilution MIC. As to conditions: EMR Staphylococcus aureus 16 NCTC 13277. The format is cell-based.
The subject of data set [10] is VS Enterococcus faecalis NCTC 775. The data set is described as follows: Broth microdilution MIC. Format: cell-based.
For data set [11], the system named is VR Enterococcus faecalis NCTC 12201. In words: Broth microdilution MIC. The conditions noted are these: VR Enterococcus faecalis NCTC 12201. Format: cell-based.
For data set [12], the system named is VR Enterococcus faecium NCTC 12204. The data set is described as follows: Broth microdilution MIC. Format: cell-based. As to conditions: VR Enterococcus faecium NCTC 12204.
The test system of the next data set is C. albicans 3179. In words: Broth microdilution MIC. The format is cell-based, Candida albicans. The conditions noted are these: C. albicans 3179.
The next data set relates to C. albicans 3281. The data set is described as follows: Broth microdilution MIC. Format: cell-based, Candida albicans. As to conditions: C. albicans 3281.
For a further data set, the system named is C. auris temp probe. The data set is described as follows: Broth microdilution MIC. The format is cell-based, Candida auris. As to conditions: C. auris temp probe.
In another data set the test system is C. glabrata 8018. In words: Broth microdilution MIC. Format: cell-based. As to conditions: C. glabrata 8018.
The test system of a further data set is C. tropicalis 8760. The data set is described as follows: Broth microdilution MIC. Format: cell-based. As to conditions: C. tropicalis 8760.
The test system of the next data set is C. krusei 3876. In words: Broth microdilution MIC. The format is cell-based.
The test system of a further data set is C. parapsilosis 3209. The data set is described as follows: Broth microdilution MIC. Format: cell-based.
A further data set deals with C. parapsilosis. In words: Broth microdilution MIC. Format: cell-based.
The next data set has as its system M. smegmatis mc^2 155. In words: Broth microdilution MIC (Middlebrook 7H9). The format is cell-based, Mycobacterium smegmatis.
Data set [13] deals with M. tuberculosis Bleupan. In words: microbe, parasite or virus in culture. The format is cell-based, Mycobacterium tuberculosis.
The next data set relates to HEK293. The data set is described as follows: In vitro toxicity for cell line. Format: cell-based, human. The conditions noted are these: HEK293; average ± standard error from 3 independent repeats. The text has this: (§1) TABLE 2 Toxicity of bolaamphiphiles for two cell lines^a | column: Toxicity (EC50 [μg/ml]) of: / 12-bis-THA Cl2; Toxicity (EC50 [μg/ml]) of: / Dequalinium; Toxicity (EC50 [μg/ml]) of: / Quino-bola; Toxicity (EC50 [μg/ml]) of: / Penta-bola; Toxicity (EC50 [μg/ml]) of: / Hepta-bola; Toxicity (EC50 [μg/ml]) of: / Octa-bola; Toxicity (EC50 [μg/ml]) of: / Octa-C10; Toxicity (EC50 [μg/ml]) of: / Octa-C8; Toxicity (EC50 [μg/ml]) of: / Octa-C6

The next data set relates to HeLa. In words: In vitro toxicity for cell line. Format: cell-based, human. The conditions noted are these: average ± standard error from 3 independent repeats.
Text: as §1

The next data set has as its system P. aeruginosa RP73. In words: Checkerboard synergy assay. Format: cell-based, Pseudomonas aeruginosa.
In data set [14] the test system is M. tuberculosis Bleupan. The format is in vivo, Galleria mellonella.
A short description of another data set: Dynamic light scattering. The format is physicochemical. How it is done:
Stock solutions of bolalipids were prepared by dispersing the powder in ultrapure water, then stirring vigorously by vortexing, and sonicating in a 40°C bath sonicator for 20 min. The concentration of each stock solution corresponds to the highest solubility achieved in water for each bolalipid, using the method described above. DLS experiments were performed on a Malvern Zetasizer Nano (Malvern Instruments, Worcestershire, UK) in back-scattering mode at 20°C. There were three independent measurements of each sample and 12 runs for each measurement, with 10 s taken for each run. The attenuator index and measurement position were automatically adjusted. Fifty microliters of each sample was transferred into polystyrene semi-microcuvettes for determination of UV and visible wavelengths (Sarstedt).

Where [15] appears, read: in the presence of 0.25× MIC Octa-C10 (Table S1).
[16] abbreviates: in the presence of 0.25× MIC Octa-bola (Table S1).

Turning to Colistin, the MIC of antibiotic was 0.125 to 0.25 µg/mL with P. aeruginosa PAO1 (No bola (Table S1)); 0.06 µg/mL in the data set with P. aeruginosa PAO1 (setting [15]); 0.06 µg/mL in the data set with P. aeruginosa PAO1 (setting [16]); 0.25 to 0.5 µg/mL in the data set on P. aeruginosa NCTC 13437 (No bola (Table S1)); 0.125 to 0.25 µg/mL in the data set on P. aeruginosa NCTC 13437 (setting [15]); 0.125 µg/mL in the data set on P. aeruginosa NCTC 13437 (setting [16]). The “bactericidal activity (minimum growth rate, ψmin)” value in data set [1] was “weakly bactericidal”.

Take `Nc1c2c([n+](CCCCCC[n+]3c4c(c(N)c5ccccc53)CCCCCC4)c3ccccc13)CCCCCC2` [Octa-C6]: the MIC (in data set [2]; against Klebsiella pneumoniae M6; in data set [3]; in data set [4]; in data set [5]; in data set [6]) was greater than 32 µg/mL in each case. The MIC in data set [7] is greater than 32 µg/mL; in [8], 16 µg/mL; in data set [9], 16 µg/mL; in [10], 32 µg/mL; in data set [11] it was 16 µg/mL; in [12] it was 16 µg/mL. Further, the MIC in the data set with C. albicans 3179 was 8 µg/mL; with C. albicans 3281 it was 8 µg/mL; against C. auris temp probe it was greater than 8 µg/mL; in the data set on C. glabrata 8018, greater than 8 µg/mL; against C. tropicalis 8760 it was 8 µg/mL; with C. krusei 3876 it was greater than 8 µg/mL. Besides, the MIC in the data set with C. parapsilosis 3209 was greater than 8 µg/mL; against C. parapsilosis it was greater than 8 µg/mL; against M. smegmatis mc^2 155 it was 1.66 µg/mL; against M. tuberculosis Bleupan [13] it was 0.46 µg/mL. For the same compound, the “Toxicity (EC50)” value in the data set with HEK293 stood at 40.0 ± 15.6 µg/mL; in the data set on HeLa, 64.3 ± 3.6 µg/mL. In the data set on P. aeruginosa RP73, the “MIC alone Bolalipid” value worked out at 64 µg/mL. Further, the protection result with M. tuberculosis Bleupan [14] (all doses tested) was “did not provide protection”. For the same compound, the survival result in the data set on M. tuberculosis Bleupan [14] (three lower doses (0.01, 0.1, and 1 mg/kg)) is “survival was significantly worse”. Moreover, the “nanoparticle formation (DLS)” value in “Dynamic light scattering” (any conditions) is on record as “Under no conditions did Octa-C6 give evidence of nanoparticle formation”. Moreover, in the data set “Dynamic light scattering” (concentrations up to 1.65 mM), the derived count rate is no more than 26.3 kcps.
